For this experiment, the system named is C. trachomatis serovar LGV-L2. The experiment can be described thus: Inhibition of infectious Chlamydia progenies (C. trachomatis infectivity, reinfection of HeLa cells, IFU count). As to conditions: infected HeLa cells, MOI 0.3, compound added 1 hpi, 44-48 h, relative to DMSO-treated control; for inhibition at 10 µM: 10 uM compound; for inhibition at 50 µM: 50 uM compound; for inhibition at 2.5 µM: 2.5 uM compound; for inhibition at 100 µM: 100 uM compound. Format: cell-based. On the procedure:
Cell Culture, C. trachomatis Infections, and Determination of C. trachomatis Infectivity.
HeLa cells were infected with C. trachomatis serovar LGV-L2 at an MOI of 0.3. At 1 hpi, RPMI media containing the different dilutions of the tested compounds in DMSO were added. The different compounds were dissolved to 20 mM in DMSO and were then diluted with RPMI media to be added at 2.5 to 100 μM. After 44-48 h incubation, the cells were osmotically lysed by the addition of cold sterile distilled water to release infectious EB progeny. 5×SPG was added to equalize the osmotic pressure to a 1×SPG isotonic condition. An equal amount of HBSS (Hanks balanced salt solution) (Gibco/Invitrogen) was added to the lysate (yielding a 1:1 dilution) and 10-fold serial dilutions of the resulting mixture was used to infect fresh HeLa cells. At 1 hpi, the inoculum was replaced with RPMI media and the infection allowed to progress for 44-48 hours before fixation and staining. Fixation was performed by adding methanol for 5 minutes and the cells were subsequently washed with phosphate buffered saline (PBS). The chlamydial inclusions were stained by a primary rabbit anti-Chlamydia antibody (generated in-house) and a secondary donkey anti-rabbit FITC-labelled antibody (Jackson ImmunoResearch). The DNA of the cells and Chlamydia was stained by the addition of DAPI. The stained cells were analyzed by an ArrayScan automated scanner (ArrayScan VTI HCS, Thermo Scientific). Data were presented as the relative numbers of IFUs in treated infections compared to the numbers of IFUs in DMSO-treated control infections.
The compounds of Examples 1-33 were tested for inhibition of infectious Chlamydia progenies at concentrations of 2.5 μM, 10 μM, 50 μM and 100 μM. In this document μM stands for micromolar. The compounds of the present disclosure were considered to have antibacterial activity if they provided 50% or more inhibition of infectious Chlamydia progenies using at least one of the tested concentrations in Table 1.

As for `CN(C)c1c(Cc2cccc3ccccc23)cc(=O)n2c1SC[C@H]2C(=O)Nc1ccccc1` [Example 24, {(3R)-7-(Dimethylamino)-6-[(1-naphthyl)methyl]-4-oxo-1-thia-3a-aza-3-indanyl}anilinoformaldehyde], the inhibition (in general, the percentage by which the read-out fell short of the control) at 10 µM worked out at 98% and the inhibition at 50 µM is 99%.

Consider `COc1c(Cc2cccc(C)c2C)cc(=O)n2c1SC[C@H]2c1nc(-c2ccccc2)no1` [Example 16, (3R)-7-Methoxy-3-(3-phenyl-1,2,4-oxadiazol-5-yl)-6-[(2,3-xylyl)methyl]-1-thia-3a-aza-4-indanone], for which the inhibition at 2.5 µM stood at 81% and at 10 µM the inhibition was 100%.

`COc1c(Cc2cccc(C)c2C)cc(=O)n2c1SC[C@H]2C(=O)Nc1ccccc1` [Example 3, {(3R)-7-Methoxy-4-oxo-6-[(2,3-xylyl)methyl]-1-thia-3a-aza-3-indanyl}anilinoformaldehyde]: testing at 2.5 µM gave an inhibition of 95% and at 10 µM the inhibition was 100%. In turn, `Cc1ccc(NC(=O)[C@@H]2CSc3c(C4CC4)c(Cc4ccc(Cl)cc4)cc(=O)n32)cc1` [Example 21, {(3R)-6-[(p-Chlorophenyl)methyl]-7-cyclopropyl-4-oxo-1-thia-3a-aza-3-indanyl}(p-toluidino)formaldehyde] displayed an inhibition at 2.5 µM of 99%.

On to `CC(C)Nc1c(Cc2cccc3ccccc23)cc(=O)n2c1SC[C@H]2C(=O)O` [Example 33, (3R)-7-(Isopropylamino)-6-[(1-naphthyl)methyl]-4-oxo-1-thia-3a-aza-3-indancarboxylic acid], for which the inhibition at 100 µM was 50%. `Cc1cccc(Cc2cc(=O)n3c(c2N(C)C)SC[C@H]3C(=O)O)c1C` [Example 31, (3R)-7-(Dimethylamino)-4-oxo-6-[(2,3-xylyl)methyl]-1-thia-3a-aza-3-indancarboxylic acid]: the inhibition at 50 µM worked out at 29% and testing at 100 µM gave an inhibition of 86%. Molecule `CS(=O)(=O)Nc1c(Cc2cccc3ccccc23)cc(=O)n2c1SC[C@H]2C(=O)Nc1ccccc1` [Example 25, Anilino{7-(methylsulfonylamino)-6-[(1-naphthyl)methyl]-4-oxo-1-thia-3a-aza-3-indanyl}formaldehyde] gave an inhibition at 10 µM of 97% and an inhibition at 50 µM of 97%. The molecule `COc1c(Cc2cccc(C)c2C)cc(=O)n2c1SC[C@H]2C(=O)Nc1cc(C)cc(F)c1` [Example 4, {(3R)-7-Methoxy-4-oxo-6-[(2,3-xylyl)methyl]-1-thia-3a-aza-3-indanyl}(3-fluoro-5-toluidino)formaldehyde] came in with an inhibition at 2.5 µM of 99% and an inhibition at 10 µM of 100%. Taken in the same sequence, the figures for `O=c1cc(Cc2cccc3ccccc23)c(C2CC2)c2n1[C@H](c1nc(-c3ccccc3)n[nH]1)CS2` [Example 22, (3R)-7-Cyclopropyl-6-[(1-naphthyl)methyl]-3-(5-phenyl-2H-1,2,4-triazol-3-yl)-1-thia-3a-aza-4-indanone] were 98% and 100%. `O=C(O)[C@@H]1CSc2c(C(F)(F)F)c(Cc3cccc4ccccc34)cc(=O)n21` [Example 29, (3R)-6-[(1-Naphthyl)methyl]-4-oxo-7-(trifluoromethyl)-1-thia-3a-aza-3-indancarboxylic acid]: 100 µM produced 56% inhibition.

`COc1c(COc2cccc(C)c2C)cc(=O)n2c1SC[C@H]2C(=O)Nc1ccc(Cl)cn1` [Example 17, {(3R)-7-Methoxy-4-oxo-6-[(2,3-xylyloxy)methyl]-1-thia-3a-aza-3-indanyl}(5-chloro-2-pyridylamino)formaldehyde] had an inhibition at 2.5 µM of 79% and an inhibition at 10 µM of 100%.

Consider `COc1c(Cc2cccc3ccccc23)cc(=O)n2c1SC[C@H]2C(=O)Nc1ccccc1` [Example 1, {(3R)-7-Methoxy-6-[(1-naphthyl)methyl]-4-oxo-1-thia-3a-aza-3-indanyl}anilinoformaldehyde], for which at 2.5 µM the inhibition was 100%. For the molecule `COc1c(Cc2cccc(C)c2C)c(N)c(=O)n2c1SC[C@H]2C(=O)Nc1ccccc1` [Example 13, {(3R)-5-Amino-7-methoxy-4-oxo-6-[(2,3-xylyl)methyl]-1-thia-3a-aza-3-indanyl}anilinoformaldehyde], the inhibition at 2.5 µM came out at 75% and 10 µM produced 100% inhibition.

As to `O=C(Nc1ccccc1)[C@@H]1CSc2c(Cl)c(Cc3cccc4ccccc34)cc(=O)n21` [Example 11, {(3R)-7-Chloro-6-[(1-naphthyl)methyl]-4-oxo-1-thia-3a-aza-3-indanyl}anilinoformaldehyde], the inhibition at 2.5 µM was 97% and the inhibition at 10 µM was 100%.

Molecule `COc1c(Cc2cccc(C)c2C)c(N)c(=O)n2c1SC[C@H]2C(=O)Nc1ccc(C)cc1` [Example 7, {(3R)-5-Amino-7-methoxy-4-oxo-6-[(2,3-xylyl)methyl]-1-thia-3a-aza-3-indanyl}(p-toluidino)formaldehyde] gave an inhibition at 2.5 µM of 90% and an inhibition at 10 µM of 100%.

`Cc1ccc(NC(=O)[C@@H]2CSc3c(C4CC4)c(Cc4cccc(C)c4C)cc(=O)n32)cc1` [Example 20, {(3R)-7-Cyclopropyl-4-oxo-6-[(2,3-xylyl)methyl]-1-thia-3a-aza-3-indanyl}(p-toluidino)formaldehyde]: at 2.5 µM the inhibition was 99%. Take `COc1c(Cc2cccc3ccccc23)c(N)c(=O)n2c1SC[C@H]2C(=O)Nc1ccccc1` [Example 6, {(3R)-5-Amino-7-methoxy-6-[(1-naphthyl)methyl]-4-oxo-1-thia-3a-aza-3-indanyl}anilinoformaldehyde]: 2.5 µM produced 63% inhibition and the inhibition at 10 µM amounted to 100%. Taken in the same sequence, the figures for `COc1c(Cc2cccc(C)c2C)c(N)c(=O)n2c1SC[C@H]2C(=O)Nc1cc(C)cc(F)c1` [Example 8, {(3R)-5-Amino-7-methoxy-4-oxo-6-[(2,3-xylyl)methyl]-1-thia-3a-aza-3-indanyl}(3-fluoro-5-toluidino)formaldehyde] were 87% and 100%. Taken in the same sequence, the figures for `O=C(Nc1ccccc1)[C@@H]1CSc2c(C(F)(F)F)c(Cc3cccc4ccccc34)cc(=O)n21` [Example 12, {(3R)-6-[(1-Naphthyl)methyl]-4-oxo-7-(trifluoromethyl)-1-thia-3a-aza-3-indanyl}anilinoformaldehyde] were 98% and 100%. In the case of `Cc1ccc(Cc2cc(=O)n3c(c2N(C)C)SC[C@H]3C(=O)O)c2ccccc12` [Example 32, (3R)-7-(Dimethylamino)-6-[(4-methyl-1-naphthyl)methyl]-4-oxo-1-thia-3a-aza-3-indancarboxylic acid], the inhibition at 50 µM came out at 91% and the inhibition at 100 µM amounted to 99%. `COc1c(Cc2cccc3ccccc23)c(N)c(=O)n2c1SC[C@H]2C(=O)Nc1ccc(C)cc1` [Example 9, {(3R)-5-Amino-7-methoxy-6-[(1-naphthyl)methyl]-4-oxo-1-thia-3a-aza-3-indanyl}(p-toluidino)formaldehyde] yielded an inhibition at 2.5 µM of 89% and an inhibition at 10 µM of 100%. As to `O=C(Nc1ccccc1)[C@@H]1CSc2c(O)c(Cc3cccc4ccccc34)cc(=O)n21` [Example 10, {(3R)-7-Hydroxy-6-[(1-naphthyl)methyl]-4-oxo-1-thia-3a-aza-3-indanyl}anilinoformaldehyde], the inhibition at 2.5 µM is 88% and the inhibition at 10 µM came out at 98%.

Source of the values: patent US10294244B2, “2,3-dihydro-thiazolo[3,2-A]pyridin-5-one derivatives, intermediates thereof, and their use as antibacterial agents” (Quretech Bio AB, priority 2014, dated 2019).
